This note sets out measurements from publication PMC10244465, “Native American ataxia medicines rescue ataxia-linked mutant potassium channel activity via binding to the voltage sensing domain” (Nature Communications, 2023).

Common to all, as to assay type: cell-based
The target of experiment [1] is T1, Kv1.1/Kv1.1-L328V channels (Homo sapiens, UniProt Q09470, L328V).
T1 construct: expressed in transfected cells; host or cells: Xenopus laevis oocytes co-injected with 50/50 wild-type/mutant cRNA
T1 sequence (Q09470 whole entry, stated change not applied): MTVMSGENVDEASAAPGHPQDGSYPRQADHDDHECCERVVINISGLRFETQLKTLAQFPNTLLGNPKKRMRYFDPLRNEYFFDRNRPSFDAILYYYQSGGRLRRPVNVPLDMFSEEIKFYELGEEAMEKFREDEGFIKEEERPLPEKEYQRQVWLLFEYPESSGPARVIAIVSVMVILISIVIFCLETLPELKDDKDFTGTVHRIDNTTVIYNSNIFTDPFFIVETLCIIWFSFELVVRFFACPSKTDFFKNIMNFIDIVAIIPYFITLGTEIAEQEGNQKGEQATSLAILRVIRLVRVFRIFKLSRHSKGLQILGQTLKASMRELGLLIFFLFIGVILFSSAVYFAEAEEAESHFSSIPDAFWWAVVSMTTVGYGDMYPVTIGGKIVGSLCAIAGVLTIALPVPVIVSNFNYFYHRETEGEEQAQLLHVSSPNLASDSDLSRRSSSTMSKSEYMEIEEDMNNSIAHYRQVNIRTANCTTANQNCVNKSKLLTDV
T1 sequence (Q09470 whole entry L328V): as the sequence (Q09470 whole entry, stated change not applied) above, with L328V counted along it
The experiment in a line: TEVC of oocytes co-injected with 50/50 wild-type/L328V Kv1.1 cRNA. The conditions noted are these: for effect on channel activity: compound 1 µM. On the procedure: (§1) We next tested effects on channels generated by co-injection of 50/50 wild-type/mutant Kv1.1 cRNA. Strikingly, gallic acid (1 µM) was able to hyperpolarize (by −15.5 ± 0.5 mV; n = 4; P < 0.0001) the V0.5 act of Kv1.1/Kv1.1-E283K channels, restoring voltage dependence typical of wild-type Kv1.1 (Fig. 7a–c), also inducing a −14 ± 0.7 mV hyperpolarization (n = 4; P = 0.0005) in EM of oocytes expressing Kv1.1/Kv1.1-E283K (Fig. 7d). […] Because of this hint at activity improvement in L155P channels we also applied higher concentrations (10 and 100 µM) of gallic acid, which produced a more robust (−12.5 ± 0.6 mV and −14.1 ± 0.6 mV, respectively) hyperpolarization of Kv1.1/Kv1.1-L155P V0.5 act (Fig. 8b, c) and hyperpolarized EM by −14.0 ± 0.6 mV and −15.2 ± 0.7 mV, respectively (Fig. 8d).
(§2) Wild-type and mutant Kv1 cDNAs were generated (Genscript, Piscataway, NJ) in the pTLNx expression vector. As previously described, we generated cRNA transcripts encoding human Kv1.1 (wild-type and mutant) and Kv1.2, by in vitro transcription using the mMessage mMachine kit (Thermo Fisher Scientific), after vector linearization, from cDNA sub-cloned into plasmids (pTLNx) incorporating Xenopus laevis β-globin 5’ and 3’ UTRs flanking the coding region to enhance translation and cRNA stability. […]
(§3) We performed TEVC at room temperature using an OC-725C amplifier (Warner Instruments, Hamden, CT) and pClamp10 software (Molecular Devices, Sunnyvale, CA) 2 days after cRNA injection as described in the section above. […] We recorded currents in response to voltage pulses between −80 mV and +40 mV at 10 or 20 mV intervals from a holding potential of −80 mV, to yield current-voltage relationships and examine activation kinetics. To calculate the voltage dependence of activation (V0.5), tail currents were recorded at a voltage pulse of −50 mV immediately following prepulse voltages between −80 mV and +40 mV. We analyzed data using Clampfit (Molecular Devices) and Graphpad Prism software (GraphPad, San Diego, CA, USA), stating values as mean ± SEM. […]

For experiment [2], the target named is T2, Kv1.1/Kv1.1-V408A channels (Homo sapiens, UniProt Q09470, V408A).
T2 construct: expressed in transfected cells; host or cells: Xenopus laevis oocytes co-injected with 50/50 wild-type/mutant cRNA
T2 sequence (Q09470 whole entry, stated change not applied): as the sequence (Q09470 whole entry, stated change not applied) above
T2 sequence (Q09470 whole entry V408A): as the sequence (Q09470 whole entry, stated change not applied) above, with V408A counted along it
The experiment in a line: TEVC of oocytes co-injected with 50/50 wild-type/V408A Kv1.1 cRNA. The conditions noted are these: for effect on channel activity: compound 1 µM. The procedure:
as §1, §2, §3

For experiment [3], the target named is T3, Kv1.1-L155P channels (Homo sapiens, UniProt Q09470, L155P).
T3 construct: expressed in transfected cells; host or cells: Xenopus laevis oocytes
T3 sequence (Q09470 whole entry L155P): as the sequence (Q09470 whole entry, stated change not applied) above, with L155P counted along it
In words: TEVC of oocytes expressing 100% Kv1.1-L155P. The conditions noted are these: compound 1 µM.
From the text: As previously described[24], we generated cRNA transcripts encoding human Kv1.1 (wild-type and mutant) and Kv1.2, by in vitro transcription using the mMessage mMachine kit (Thermo Fisher Scientific), after vector linearization, from cDNA sub-cloned into plasmids (pTLNx) incorporating Xenopus laevis β-globin 5’ and 3’ UTRs flanking the coding region to enhance translation and cRNA stability. We injected defolliculated stage V and VI Xenopus laevis oocytes (Xenoocyte, Dexter, MI, US) with Kv1 cRNAs (1–5 ng). […]

Consider `O=C(O)c1cc(O)c(O)c(O)c1` [gallic acid], for which the figures for the “effect on channel activity” value in experiment [1], in experiment [2] and in experiment [3] were “negligible”, “negligible” and “ineffective at rescuing activity”, respectively. In addition, the EM is listed as -33.00 ± 1.09 mV in experiment [1] (in presence of 1 µM compound) and -46.60 ± 0.60 mV in experiment [2] (in presence of 1 µM compound).

In the case of tannic acid, the figures for the “effect on channel activity” value in experiment [1], in experiment [2] and in experiment [3] were “minimal”, “minimal” and “did not alter”, respectively.
